According to patent publication US20220364065A1, “COMPOSITION FOR REMOVING PLURIPOTENT STEM CELLS AND METHOD OF REMOVING PLURIPOTENT STEM CELLS” (NATIONAL UNIVERSITY CORPORATION HOKKAIDO UNIVERSITY, priority 2018, published 2022):
Entries after “also recorded” stand apart in the source; their conditions may differ.

How the values were obtained:
mouse iPS cells [1] = assay: Cell proliferation and cell death (BrdU uptake, Ki67, Casp3 immunostaining), iPS cells; format: cell-based; details: BRQ 2 days
Protocol: (§1) The cells were fixed and immunostained as described in Kondo et al., Genes Dev. 2004, Vol. 18, Issue 23, pp. 2963-72. […] For the culture of mNSCs, PDL+fibronectin-coated ones were used (see Johe KK et al., Genes Dev. 1996, Vol. 10, Issue 24, pp. 3129 to 3140). For the culture of ES cells and iPS cells, gelatin-coated ones were used.
(§2) For immunostaining, the cells were first washed once with PBS, then fixed by adding 4% paraformaldehyde and incubating for 10 minutes at room temperature. The cells were replaced with PBS containing 0.3% Triton X100 and incubated for 5 minutes at room temperature, then replaced with PBS containing 0.3% Triton X100 and 10% FCS (blocking solution) and incubated for 30 minutes at room temperature. The solution was replaced with primary antibody solution diluted in blocking solution and incubated for 2 hours at room temperature. After washing three times with PBS, secondary antibody and DAPI solution diluted with blocking solution were added and incubated at room temperature for 2 hours. After washing three times with PBS, the cells were sealed with anti-fading agent (manufactured by DAKO, code number: 53023) and observed under a microscope. […] In addition, fluorescence images were acquired with an Axiolmager M1 microscope (manufactured by Carl Zeiss). […]

C2C12: mouse myoblasts = assay: MTT assay, viability of C2C12 cells; format: cell-based; details: 10 μM BRQ, 3 days
Protocol: (§3) One thousand cells were seeded into each well of a 96-well plate and cultured for 3 days in medium (200 μL/well) supplemented with only DMSO at a final concentration of 0.1% or in medium (200 μL/well) supplemented with each dihydroorotate dehydrogenase (DHODH) inhibitor. The medium used was the appropriate culture solution for each cell as described above.
(§4) The concentration of each DHODH inhibitor added to the medium was a 2-fold dilution series starting from 200 μM.
(§5) As a background, a well containing medium only was prepared, and as a control, a well was also prepared in which medium containing Triton X-100 (final concentration 0.2%) was added to the cells.
(§6) Then, 5 μL of MTT (5 mg/ml, manufactured by Wako) was added to each well, and the cells were incubated at 37° C. for 2 to 3 hours. Then, the medium was replaced with 100 μL of DMSO to lyse the cells, and the absorbance of these cell lysates at a wavelength of 570 nm was measured with a microplate reader (manufactured by Bio-Rad, Benchmark model). In addition, based on the obtained absorbance, the cell viability was calculated by the following formula.
(§7) Cell viability (%)=(absorbance in wells with DHODH inhibitor-absorbance in background)/(absorbance in control-absorbance in background)×100. […]

[2] = tested on: PA6: mouse bone marrow-derived stromal cells; assay: MTT assay, viability of PA6 cells; format: cell-based; details: 10 μM BRQ, 3 days
Protocol: as §3, §4, §5, §6, §7

mouse ES cells [3] = assay: Cell proliferation and cell death (BrdU uptake, Ki67, Casp3 immunostaining), ES cells; format: cell-based; details: BRQ 2 days
Protocol: as §1, §2

[4] = Side effects in treated tumor-bearing mice; format: in vivo; details: NOD/SCID mice, BRQ intraperitoneally
[5] = tested on: mouse neural stem cells and mouse iPS cells; assay: Mixed culture of neural stem cells and iPS cells, Nestin/Nanog immunostaining; format: cell-based; details: 10 μM BRQ, 3 days
Protocol: as §1
For immunostaining, the cells were first washed once with PBS, then fixed by adding 4% paraformaldehyde and incubating for 10 minutes at room temperature. The cells were replaced with PBS containing 0.3% Triton X100 and incubated for 5 minutes at room temperature, then replaced with PBS containing 0.3% Triton X100 and 10% FCS (blocking solution) and incubated for 30 minutes at room temperature. The solution was replaced with primary antibody solution diluted in blocking solution and incubated for 2 hours at room temperature. After washing three times with PBS, secondary antibody and DAPI solution diluted with blocking solution were added and incubated at room temperature for 2 hours. After washing three times with PBS, the cells were sealed with anti-fading agent (manufactured by DAKO, code number: 53023) and observed under a microscope. […] In addition, fluorescence images were acquired with an Axiolmager M1 microscope (manufactured by Carl Zeiss).
The cells were then analyzed by immunostaining as described above.

[6] = tested on: teratomas formed from mouse iPS cells; assay: Anti-teratoma activity in NOD/SCID mice, iPS cell-derived tumors; format: in vivo
Protocol: For tumors, 10-μm-thick sections were prepared and immunostained using the methods described by Kondo T. and Raff M., EMBO J. 2000; 19(9): 1998-2007, and Takanaga H, et al., Stem Cells. 2009; 27(1): 165-174. The following antibodies were used for this immunostaining.
TOCRIS) PBS solution was administered daily intraperitoneally to mice bearing subcutaneous tumors. Five days after intraperitoneal administration, the mice were sacrificed to death, and the tumors were removed and photographed for pathological analysis according to the method described in Tsukamoto Y, et al., Stem Cells. 2016; 34(8): 2016-2025.
Next, sections of these tumors were prepared, immunolabeled for the proliferation marker Ki67, pluripotent stem cell markers (Oct4 and Nanog), and differentiation markers (ATF, βIII tubulin, and SMA), and observed.

mouse iPS cells [7] = assay: MTT assay, viability of mouse iPS cells; format: cell-based; details: 3 days
Protocol: as §3, §4, §5, §6
(§8) Cell viability (%)=(absorbance in wells with DHODH inhibitor-absorbance in background)/(absorbance in control-absorbance in background)×100.

mouse ES cells [8] = assay: Quantitative RT-PCR of Sox2, Oct4, Nanog, ES cells; format: cell-based; details: 10 μM BRQ, 2 days
Protocol: First, total RNA was prepared from cells using the RNeasy kit (manufactured by Qiagen), and cDNA was synthesized using the Transcriptor First Strand cDNA Synthesis Kit (manufactured by Roche Applied Science).
Then, the cDNA was used as a template, and Thunderbird Cyber qPCR Mix (manufactured by TOYOBO) and Step One Plus (manufactured by Thermo Fisher Scientific) were used to perform real-time PCR. The reaction conditions were set at 95° C. for 15 seconds and 60° C. for 30 seconds for 40 cycles, and the oligonucleotide primers shown below were used to amplify each target gene.
Note that the expression level of each target gene detected in this way was normalized by the relative quantification method (delta delta Ct method) based on the expression level of 18S ribosomal RNA.

mouse astrocytes = assay: MTT assay, viability of mouse astrocytes; format: cell-based; details: 10 μM BRQ, 3 days
Protocol: as §3, §4, §5, §6, §8

mouse ES cells [9] = assay: MTT assay, viability of mouse ES cells; format: cell-based; details: 3 days
Protocol: as §3, §4, §5, §6, §8

[10] = tested on: mouse neural stem cells (mNSC); assay: MTT assay, viability of mouse neural stem cells; format: cell-based; details: 10 μM BRQ, 3 days
Protocol: as §3, §4, §5, §6, §8

[11] = 2-fold dilution series starting from 200 μM

Structure (SMILES): Cc1c(-c2ccc(-c3ccccc3F)cc2)nc2ccc(F)cc2c1C(=O)O [BRQ, 6-fluoro-2-(2′-fluoro-1,1′-biphenyl-4-yl)-3-methyl-4-quinoline-sodium carboxylate]
- CASP3 activation (Casp3 immunostaining) (mouse iPS cells [1]): strongly activated
- cell proliferation (BrdU uptake assay) (mouse iPS cells [1]): reduced the proliferation
- cytotoxic activity (viability, MTT assay) (C2C12: mouse myoblasts): no significant cytotoxic activity
- cytotoxic activity (viability, MTT assay) [2]: no significant cytotoxic activity
- CASP3 activation (Casp3 immunostaining) (mouse ES cells [3]): strongly activated
- cell proliferation (BrdU uptake assay) (mouse ES cells [3]): reduced the proliferation
- side effects in treated mice [4]: no visible side effects
- iPS cells (Nanog) in mixed culture ([5]; ES cell medium): lost
- cytotoxicity to neural stem cells (Nestin) in mixed culture ([5]; mixed with iPS cells): no obvious cytotoxicity
- number of Oct4-positive cells and Nanog-positive cells in tumors ([6]; iPS cell-derived tumors): significantly decreased
- tumor proliferation ([6]; iPS cell-derived tumors, BRQ intraperitoneally): suppressed
- cells expressing differentiation markers (ATF, βIII tubulin, SMA) in tumors ([6]; iPS cell-derived tumors, BRQ- vs DMSO-treated): similarly contained in both tumors
- Ki67-positive proliferating cells in tumors ([6]; iPS cell-derived tumors, compared to DMSO-treated tumors): significantly reduced
- sizes of teratomas ([6]; iPS cell-derived, BRQ intraperitoneally (DMSO control 1.37 cm^3)): 0.32 cm^3
- cytotoxic activity (viability, MTT assay) (mouse iPS cells [7]; 10 μM BRQ): significant cytotoxic activity
- cytotoxic activity (viability, MTT assay) (mouse iPS cells [7]; [11]): significant cytotoxic activity
- expression levels of marker genes (Sox2, Oct4, Nanog) (mouse ES cells [8]): generally decreased
- cytotoxic activity / sensitivity (viability, MTT assay) (mouse astrocytes): hyposensitive; also recorded: no significant cytotoxic activity
- cytotoxic activity (viability, MTT assay) (mouse ES cells [9]; 10 μM BRQ): significant cytotoxic activity
- cytotoxic activity (viability, MTT assay) (mouse ES cells [9]; [11]): significant cytotoxic activity
- cytotoxic activity / sensitivity (viability, MTT assay) [10]: hyposensitive; also recorded: no significant cytotoxic activity
